This is an account of results in patent US9730940B2, “Purine inhibitors of human phosphatidylinositol 3-kinase delta” (priority 2012, dated 2017).

A value given as a limit tells only on which side of the number the result lay.

For this experiment, the target named is PI3K-alpha (Homo sapiens (Human), UniProt P42336). Put plainly: HTRF PI3K biochemical assay, alpha isoform. Conditions: ratio PI3K-alpha IC50 value/PI3K-delta IC50 value. From the text:
HTRF PI3K Biochemical Assay to Measure Intrinsic Potency of Compound Inhibitors
The PI3-Kinase biochemical assays were developed to measure the intrinsic potency and compound dependent inhibition of the alpha, beta, delta, and gamma PI3K isoform enzymes. This assay was developed and further optimized from a kit produced by Upstate (Millipore catalog #33-047) and has been configured for HTS and SAR screening. Briefly, this procedure exploits the exquisite specificity and high affinity binding of enzyme reaction substrate phosphatidyl(3,4,5)triphosphate (PIP3) to the GRP1 pleckstrin homology (PH) domain to generate the signal. In the absence of PIP3, an HTRF (Homogeneous Time-Resolved Fluorescence energy transfer) complex is formed consisting of europium (Eu)-labeled anti-GST, GST tagged GRP1-PH domain, biotin-PIP3 and streptavidin conjugated APC. The native PIP3 produced by PI3-Kinase activity disrupts in a competitive manner the biotin-PIP3 from the PH domain, resulting in the loss of energy transfer (HTRF complex) and a decrease in the signal. The format of this assay is the same for all 4 isoforms of PI3K; the differences lie in the concentration of enzyme used to achieve robust assay window. The alpha, beta, and delta assays are run at 0.5, 1, and 0.3 nM enzymes and the gamma assay is run at 5 nM enzyme. The ATP concentration is 100 uM in the alpha, beta, and delta assays and 50 uM ATP in the gamma assay. All reactions are run at 5 uM PIP2.
Compounds are serially diluted (3-fold in 100% DMSO) across a 384-well polypropylene source plated from column 3 to column 12 and column 13 to column 22, to yield 10 concentration dose response for each test compound. Columns 1, 2, 23 and 24 contain either only DMSO or pharmacological known control inhibitor.
The PI3-Kinase biochemical assay was optimized using the HTRF kit provided by Upstate (Millipore). The assay kit contains six reagents: 1) 4× Reaction Buffer; 2) native PIP2 (substrate); 3) Stop (EDTA); 4) Detection Mix A (Streptavidin-APC); 5) Detection Mix B (Eu-labeled Anti-GST plus GST-tagged PH-domain); 6) Detection Mix C.
PI3Kinase Reaction Buffer is prepared by dilution the stock 1:4 with de-ionized water. […] Enzyme addition and compound pre-incubation are initiated by the addition of 1.25 ul of PI3K (at twice its final concentration) in the 1× reaction buffer to all wells using a BioRaptor. Plates are incubated at room temperature for 15 minutes. Reactions are initiated by addition of 1.25 ul of 2× substrate solution (PIP2 and ATP in 1× reaction buffer) using BioRaptor. Plates are incubated in humidified chamber at room temperature for one hour. Reactions are quenched by addition of 0.625 uL of stop solution to all wells using the BioRaptor. The quenched reactions are then processed to detect product formation by adding 0.625 uL of Detection Solution to all wells using the BioRaptor (Detection mix C, Detection Mix A, and Detection Mix B combined together in an 18:1:1 ratio prepared 2 hours prior to use).
The loss of the HTRF signal is due to the displacement of biotinylated-PIP3 from the PH domain by the PI3K-dependent conversion of PIP2 to PIP3. This loss of signal is nonlinear with respect to both increasing product and time. This non-linear detection will impact accuracy of IC50 calculations; therefore, there is a need for a correction factor to obtain more accurate IC50 values. This correction is derived from a PIP3 standard curve run in a separate assay plate. All data were calculated using the ratio of acceptor (APC) to donor (Europium) fluorescence in each well of the assay plate. […] An IC50 was then calculated fitting the % inhibition data to the equation: % inhibition=min+(Max−min)/1+([inhibitor]/IC50)^n) where min is the % inhibition […], max is the signal in DMSO control, and n is the Hill slope.
Background: In TR-FRET formats the signal depends on donor and acceptor labels being close together.

PI3K-alpha, sequence (P42336 whole entry, looked up, canonical isoform): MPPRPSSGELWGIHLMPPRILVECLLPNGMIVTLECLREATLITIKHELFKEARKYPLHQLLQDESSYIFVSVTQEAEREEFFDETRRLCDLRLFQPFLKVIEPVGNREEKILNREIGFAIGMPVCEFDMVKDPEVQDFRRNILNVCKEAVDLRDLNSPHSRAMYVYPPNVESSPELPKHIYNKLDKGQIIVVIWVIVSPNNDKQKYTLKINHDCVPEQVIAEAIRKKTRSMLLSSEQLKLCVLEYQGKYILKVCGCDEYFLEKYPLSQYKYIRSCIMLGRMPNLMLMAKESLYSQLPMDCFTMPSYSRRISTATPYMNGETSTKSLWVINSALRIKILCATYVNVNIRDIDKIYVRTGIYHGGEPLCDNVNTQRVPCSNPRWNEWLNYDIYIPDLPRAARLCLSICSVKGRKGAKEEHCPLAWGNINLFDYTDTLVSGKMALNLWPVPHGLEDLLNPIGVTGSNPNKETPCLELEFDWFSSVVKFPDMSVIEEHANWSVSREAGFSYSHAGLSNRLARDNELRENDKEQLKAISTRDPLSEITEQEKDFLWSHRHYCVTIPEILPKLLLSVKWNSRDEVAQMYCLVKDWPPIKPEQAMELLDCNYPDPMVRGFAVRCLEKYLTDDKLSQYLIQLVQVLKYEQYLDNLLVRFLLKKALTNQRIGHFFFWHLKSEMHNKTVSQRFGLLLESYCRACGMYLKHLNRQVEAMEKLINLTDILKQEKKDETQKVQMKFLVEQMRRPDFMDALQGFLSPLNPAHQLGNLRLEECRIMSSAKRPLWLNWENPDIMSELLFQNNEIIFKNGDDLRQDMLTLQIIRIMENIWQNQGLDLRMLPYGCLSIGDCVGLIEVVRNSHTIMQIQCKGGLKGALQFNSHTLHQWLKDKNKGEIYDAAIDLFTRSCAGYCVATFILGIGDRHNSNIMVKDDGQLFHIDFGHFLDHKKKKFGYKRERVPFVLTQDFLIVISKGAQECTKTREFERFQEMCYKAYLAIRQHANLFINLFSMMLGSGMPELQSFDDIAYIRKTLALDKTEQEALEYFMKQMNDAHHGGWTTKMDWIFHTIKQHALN
PI3K-alpha, sequence (P27986 whole entry partner, looked up, canonical isoform): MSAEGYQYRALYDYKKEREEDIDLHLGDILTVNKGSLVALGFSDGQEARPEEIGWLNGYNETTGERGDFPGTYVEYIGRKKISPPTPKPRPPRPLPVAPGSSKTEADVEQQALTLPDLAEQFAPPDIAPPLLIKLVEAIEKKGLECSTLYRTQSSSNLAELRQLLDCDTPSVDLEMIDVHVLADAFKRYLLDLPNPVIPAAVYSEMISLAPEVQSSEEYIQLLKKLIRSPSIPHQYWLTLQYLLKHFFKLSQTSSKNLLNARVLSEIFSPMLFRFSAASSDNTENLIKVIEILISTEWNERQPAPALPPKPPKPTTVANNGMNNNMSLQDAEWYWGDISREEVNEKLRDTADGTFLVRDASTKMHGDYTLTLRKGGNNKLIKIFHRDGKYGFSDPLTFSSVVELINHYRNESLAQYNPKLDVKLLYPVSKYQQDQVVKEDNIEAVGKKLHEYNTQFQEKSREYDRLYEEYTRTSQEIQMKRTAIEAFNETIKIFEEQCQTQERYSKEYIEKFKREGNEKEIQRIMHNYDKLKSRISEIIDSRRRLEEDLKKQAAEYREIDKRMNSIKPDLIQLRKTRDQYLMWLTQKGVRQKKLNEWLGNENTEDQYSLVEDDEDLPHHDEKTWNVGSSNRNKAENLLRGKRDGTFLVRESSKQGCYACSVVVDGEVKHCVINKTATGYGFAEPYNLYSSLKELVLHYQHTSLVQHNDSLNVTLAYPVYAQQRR

In the case of `CCn1c(-c2cnc(C)nc2)nc2c(O[C@H]3CCN(c4cc(C)ccn4)C3)ncnc21` [Compound 7-18, 9-ethyl-6-{[(3S)-1-(4-methylpyridin-2-yl)pyrrolidin-3-yl]oxy}-8-(2-methylpyrimidin-5-yl)-9H-purine], the “Relative Selectivity versus PI3Kalpha” value is over 10.

For `CCn1ncc(-c2nc3c(S[C@H]4CCN(C(=O)OCC(C)C)C4)ncnc3n2C)c1C` [Compound 10-9, (S)-isobutyl 3-((8-(1-ethyl-5-methyl-1H-pyrazol-4-yl)-9-methyl-9H-purin-6-yl)thio)pyrrolidine-1-carboxylate], the “Relative Selectivity versus PI3Kalpha” value is recorded as over 10.

Turning to `CCn1ncc(-c2nc3c(O[C@H]4CCN(c5ncnc6ccsc56)C4)ncnc3n2C)c1C` [Compound 7-4, 8-(1-ethyl-5-methyl-1H-pyrazol-4-yl)-9-methyl-6-{[(3S)-1-thieno[3,2-d]pyrimidin-4-ylpyrrolidin-3-yl]oxy}-9H-purine], the “Relative Selectivity versus PI3Kalpha” value is recorded as over 10.

For `CCn1c(-c2cnc(C)nc2)nc2c(OC3CN(Cc4ccccc4)CC3(C)C)ncnc21` (centres unmarked) [Compound 6-6, 6-((1-benzyl-4,4-dimethylpyrrolidin-3-yl)oxy)-9-ethyl-8-(2-methylpyrimidin-5-yl)-9H-purine], the “Relative Selectivity versus PI3Kalpha” value is on record as over 10.

For the compound `CCn1ncc(-c2nc3c(O[C@H]4CCN(C(C)=O)C4)ncnc3n2C)c1C` [Compound 2-90, (S)-1-(3-((8-(1-ethyl-5-methyl-1H-pyrazol-4-yl)-9-methyl-9H-purin-6-yl)oxy)pyrrolidin-1-yl)ethanone], the “Relative Selectivity versus PI3Kalpha” value was over 10.

`CCn1c(C(=O)NCC2CC2)nc2c(O[C@H]3CCN(C(=O)OC(C)(C)C)C3)ncnc21` [Compound 15-3, tert-butyl (3S)-3-({8-[(cyclopropylmethyl)carbamoyl]-9-ethyl-9H-purin-6-yl}oxy)pyrrolidine-1-carboxylate]: the “Relative Selectivity versus PI3Kalpha” value was over 10.

Take `CCn1c(-c2cnc(C)nc2)nc2c(O[C@H]3CCN(C(=O)C4CC4(C)C)C3)ncnc21` (single isomer, unassigned) [Compound 2-126, 6-({(3S)-1-[S- or R-(2,2-dimethylcyclopropyl)carbonyl]pyrrolidin-3-yl}oxy)-9-ethyl-8-(2-methylpyrimidin-5-yl)-9H-purine]: the “Relative Selectivity versus PI3Kalpha” value is on record as over 10.

On to `Cn1cnc2c(O[C@H]3CCN(C(=O)OC(C)(C)C)C3)ncnc21` [Compound 1-32, (S)-tert-butyl 3-((9-methyl-9H-purin-6-yl)oxy)pyrrolidine-1-carboxylate], for which the “Relative Selectivity versus PI3Kalpha” value is listed as over 7.

As to `CCn1ncc(-c2nc3c(O[C@H]4CCN(C(=O)c5ccnn5C(C)C)C4)ncnc3n2C)c1C` [Compound 2-52, 8-(1-ethyl-5-methyl-1H-pyrazol-4-yl)-9-methyl-6-{[(3S)-1-{[1-(1-methylethyl)-1H-pyrazol-5-yl]carbonyl}pyrrolidin-3-yl]oxy}-9H-purine], the “Relative Selectivity versus PI3Kalpha” value is over 10.

As to `CCn1c(-c2cnc(C)nc2)nc2c(O[C@H]3CCN(c4nccs4)C3)ncnc21` [Compound 7-22, 9-ethyl-8-(2-methylpyrimidin-5-yl)-6-{[(3S)-1-(1,3-thiazol-2-yl)pyrrolidin-3-yl]oxy}-9H-purine], the “Relative Selectivity versus PI3Kalpha” value is listed as over 10.

For `CCn1ncc(-c2nc3c(O[C@H]4CCN(C(=O)C5CC5)C4)ncnc3n2C)c1C` [Compound 2-16, 6-{[(3S)-1-(cyclopropylcarbonyl)pyrrolidin-3-yl]oxy}-8-(1-ethyl-5-methyl-1H-pyrazol-4-yl)-9-methyl-9H-purine], the “Relative Selectivity versus PI3Kalpha” value is over 10.

In the case of `CCn1c(-c2cnc(C)nc2)nc2c(O[C@H]3CCN(C(=O)C4[C@@H](C)[C@@H]4C)C3)ncnc21` (stereo partly drawn) [Compound 2-121, 6-({(3S)-1-[(2S,3S)-(2,3-dimethylcyclopropyl)carbonyl]pyrrolidin-3-yl}oxy)-9-ethyl-8-(2-methylpyrimidin-5-yl)-9H-purine], the “Relative Selectivity versus PI3Kalpha” value is over 10.

On to `CCn1c(-c2cnn3c2CCCC3)nc2c(O[C@H]3CCN(C(=O)C(C)C)C3)ncnc21` [Compound 3-60, 9-ethyl-6-{[(3S)-1-(2-methylpropanoyl)pyrrolidin-3-yl]oxy}-8-(4,5,6,7-tetrahydropyrazolo[1,5-a]pyridin-3-yl)-9H-purine], for which the “Relative Selectivity versus PI3Kalpha” value was over 10.

Take `CCn1c(N2CCC(C)CC2)nc2c(O[C@H]3CCN(C(=O)OC(C)(C)C)C3)ncnc21` [Compound 13-4, tert-butyl (3S)-3-{[9-ethyl-8-(4-methylpiperidin-1-yl)-9H-purin-6-yl]oxy}pyrrolidine-1-carboxylate]: the “Relative Selectivity versus PI3Kalpha” value is listed as over 10.

With `CCn1ncc(-c2nc3c(OC4CN(C(=O)OC(C)(C)C)C4)ncnc3n2C)c1C` [Compound 1-40, tert-butyl 3-((8-(1-ethyl-5-methyl-1H-pyrazol-4-yl)-9-methyl-9H-purin-6-yl)oxy)azetidine-1-carboxylate], the “Relative Selectivity versus PI3Kalpha” value is over 10.

For `CCn1c(-c2cnc(C(C)(C)C)s2)nc2c(O[C@H]3CCN(C(=O)OC(C)(C)C)C3)ncnc21` [Compound 1-35, tert-butyl (3S)-3-{[8-(2-tert-butyl-1,3-thiazol-5-yl)-9-ethyl-9H-purin-6-yl]oxy}pyrrolidine-1-carboxylate], the “Relative Selectivity versus PI3Kalpha” value is reported as over 10.

For `CCn1c(-c2cnc(C)nc2)nc2c(OC3CN(C(=O)C4CC4)CC3O)ncnc21` (single isomer, unassigned) [Compound 2-100, [(3R,4R) or (3S,4S)]-trans-1-(cyclopropylcarbonyl)-4-{[9-ethyl-8-(2-methylpyrimidin-5-yl)-9H-purin-6-yl]oxy}pyrrolidin-3-ol], the “Relative Selectivity versus PI3Kalpha” value is recorded as over 10.

With `CCn1c(-c2cnn3c2CCCC3)nc2c(O[C@H]3CCN(C(=O)C4CC4)C3)ncnc21` [Compound 3-59, 6-{[(3S)-1-(cyclopropylcarbonyl)pyrrolidin-3-yl]oxy}-9-ethyl-8-(4,5,6,7-tetrahydropyrazolo[1,5-a]pyridin-3-yl)-9H-purine], the “Relative Selectivity versus PI3Kalpha” value was over 10.

For `CCn1ncc(-c2nc3c(O[C@H]4CCN(c5cc(C(F)(F)F)ccn5)C4)ncnc3n2C)c1C` [Compound 7-5, 8-(1-ethyl-5-methyl-1H-pyrazol-4-yl)-9-methyl-6-({(3S)-1-[4-(trifluoromethyl)pyridin-2-yl]pyrrolidin-3-yl}oxy)-9H-purine], the “Relative Selectivity versus PI3Kalpha” value is over 10.

`CCn1ncc(-c2nc3c(S[C@H]4CCN(C(=O)c5coc(C)n5)C4)ncnc3n2C)c1C` [Compound 10-11, (S)-(3-((8-(1-ethyl-5-methyl-1H-pyrazol-4-yl)-9-methyl-9H-purin-6-yl)thio)pyrrolidin-1-yl)(2-methyloxazol-4-yl)methanone]: the “Relative Selectivity versus PI3Kalpha” value is reported as over 10.

As to `CCC(=O)N1CC[C@H](Oc2ncnc3c2nc(C2=CCOCC2)n3CC)C1` [Compound 14-1, 8-(3,6-dihydro-2H-pyran-4-yl)-9-ethyl-6-{[(3S)-1-propanoylpyrrolidin-3-yl]oxy}-9H-purine], the “Relative Selectivity versus PI3Kalpha” value is over 10.

As for `CCn1ncc(-c2nc3c(O[C@H]4CCN(C(=O)c5oc(C)nc5C)C4)ncnc3n2C)c1C` [Compound 2-58, 6-({(3S)-1-[(2,4-dimethyl-1,3-oxazol-5-yl)carbonyl]pyrrolidin-3-yl}oxy)-8-(1-ethyl-5-methyl-1H-pyrazol-4-yl)-9-methyl-9H-purine], the “Relative Selectivity versus PI3Kalpha” value was over 10.

For the compound `CCCN1CC[C@H](Oc2ncnc3c2nc(-c2cnn(CC)c2C)n3C)C1` [Compound 6-5, (S)-8-(1-ethyl-5-methyl-1H-pyrazol-4-yl)-9-methyl-6-((1-propylpyrrolidin-3-yl)oxy)-9H-purine], the “Relative Selectivity versus PI3Kalpha” value was over 10.
